Data taken from ChEMBL document CHEMBL4330091, “The discovery and optimization of benzimidazoles as selective NaV1.8 blockers for the treatment of pain” (Bioorg Med Chem, 2019).
Values after ≈ are worked out from the molar mass of the structure shown.

Assays:
[1] = molecular target: Sodium channel protein type 10 subunit alpha (Homo sapiens, UniProt Q9Y5Y9); test: Inhibition of human Nav1.8 expressed in HEK cells by patch-clamp electrophysiology method; assay type: cell-based
Nav1.5 (SCN5A) = Nav1.5 (SCN5A) (Homo sapiens, UniProt Q14524); test: Inhibition of human Nav1.5 at 10 uM
[2] = molecular target: Sodium channel protein type 1 subunit alpha (Homo sapiens, UniProt P35498); test: Inhibition of human Nav1.1
[3] = molecular target: Sodium channel protein type 2 subunit alpha (Homo sapiens, UniProt Q99250); test: Inhibition of human Nav1.2
[4] = molecular target: Sodium channel protein type 5 subunit alpha (Homo sapiens, UniProt Q14524); test: Inhibition of human Nav1.5
[5] = molecular target: Voltage-gated inwardly rectifying potassium channel KCNH2 (Homo sapiens, UniProt Q12809); test: Inhibition of human ERG
[6] = Apparent permeability from apical to basolateral in RRCK cells; assay type: ADME, cell-based, Canis lupus familiaris, MDCKII-LE; details: dog, MDCK
[7] = Stability in human liver microsomes assessed per mg protein; assay type: ADME, Microsome
[8] = Stability in human hepatocytes assessed per million cells; assay type: ADME, cell-based, Hepatocyte
[9] = Lipophilicity, log D of the compound; assay type: physicochemical; details: octanol/water
[10] = Dissociation constant, pKa of the compound; assay type: physicochemical
[11] = Solubility of the compound at pH 7.4; assay type: physicochemical; details: buffer
[12] = molecular target: Sodium channel protein type 3 subunit alpha (Homo sapiens, UniProt Q9NY46); test: Inhibition of human Nav1.3
[13] = molecular target: Sodium channel protein type 4 subunit alpha (Homo sapiens, UniProt P35499); test: Inhibition of human Nav1.4
[14] = molecular target: Sodium channel protein type 8 subunit alpha (Homo sapiens, UniProt Q9UQD0); test: Inhibition of human Nav1.6
[15] = molecular target: Sodium channel protein type 9 subunit alpha (Homo sapiens, UniProt Q15858); test: Inhibition of human Nav1.7
[16] = molecular target: T1, Potassium voltage-gated channel subfamily KQT member 1 (Homo sapiens, UniProt P51787); test: Inhibition of KvLQT1 (unknown origin)
T1 sequence (P51787 whole entry): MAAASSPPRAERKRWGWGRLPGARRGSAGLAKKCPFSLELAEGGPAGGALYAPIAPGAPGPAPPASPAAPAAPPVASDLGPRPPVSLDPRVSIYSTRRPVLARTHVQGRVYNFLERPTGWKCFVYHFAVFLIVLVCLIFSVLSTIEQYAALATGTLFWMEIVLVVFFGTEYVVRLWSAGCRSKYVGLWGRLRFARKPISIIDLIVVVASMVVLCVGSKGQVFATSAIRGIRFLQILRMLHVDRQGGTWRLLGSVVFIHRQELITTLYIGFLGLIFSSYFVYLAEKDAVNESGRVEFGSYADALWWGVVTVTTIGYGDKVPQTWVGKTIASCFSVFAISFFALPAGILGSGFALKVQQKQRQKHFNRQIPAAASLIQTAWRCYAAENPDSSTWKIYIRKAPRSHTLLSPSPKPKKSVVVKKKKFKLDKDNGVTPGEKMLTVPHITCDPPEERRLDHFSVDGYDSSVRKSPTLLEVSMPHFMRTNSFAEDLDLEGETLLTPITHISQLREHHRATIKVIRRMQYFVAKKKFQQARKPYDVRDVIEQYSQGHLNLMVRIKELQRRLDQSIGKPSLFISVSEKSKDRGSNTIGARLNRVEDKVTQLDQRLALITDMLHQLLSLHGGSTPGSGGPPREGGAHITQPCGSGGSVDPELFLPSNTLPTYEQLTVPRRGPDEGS

[17] = molecular target: Potassium voltage-gated channel subfamily A member 5 (Homo sapiens, UniProt P22460); test: Inhibition of Kv1.5 (unknown origin)
[18] = molecular target: Potassium voltage-gated channel subfamily A member 1 (Homo sapiens, UniProt Q09470); test: Inhibition of Kv1.1 (unknown origin)
[19] = molecular target: Potassium voltage-gated channel subfamily A member 2 (Homo sapiens, UniProt P16389); test: Inhibition of Kv1.2 (unknown origin)
[20] = molecular target: Small conductance calcium-activated potassium channel protein 2 (Homo sapiens, UniProt Q9H2S1); test: Inhibition of SK2 (unknown origin)
[21] = molecular target: Voltage-gated T-type calcium channel (Homo sapiens, UniProt O95180+O43497+Q9P0X4); test: Inhibition of T-type calcium channel (unknown origin); assay type: protein assay
[22] = molecular target: Voltage-gated L-type calcium channel (Homo sapiens, UniProt Q13936+Q13698+Q01668+O60840); test: Inhibition of L-type calcium channel (unknown origin); assay type: protein assay
[23] = molecular target: T2, Gamma-aminobutyric acid receptor subunit alpha-1/gamma-2 (Homo sapiens, UniProt P14867+P18507); test: Inhibition of GABA receptor alpha1gamma2 (unknown origin); assay type: protein-complex assay
T2 sequence (P14867 whole entry): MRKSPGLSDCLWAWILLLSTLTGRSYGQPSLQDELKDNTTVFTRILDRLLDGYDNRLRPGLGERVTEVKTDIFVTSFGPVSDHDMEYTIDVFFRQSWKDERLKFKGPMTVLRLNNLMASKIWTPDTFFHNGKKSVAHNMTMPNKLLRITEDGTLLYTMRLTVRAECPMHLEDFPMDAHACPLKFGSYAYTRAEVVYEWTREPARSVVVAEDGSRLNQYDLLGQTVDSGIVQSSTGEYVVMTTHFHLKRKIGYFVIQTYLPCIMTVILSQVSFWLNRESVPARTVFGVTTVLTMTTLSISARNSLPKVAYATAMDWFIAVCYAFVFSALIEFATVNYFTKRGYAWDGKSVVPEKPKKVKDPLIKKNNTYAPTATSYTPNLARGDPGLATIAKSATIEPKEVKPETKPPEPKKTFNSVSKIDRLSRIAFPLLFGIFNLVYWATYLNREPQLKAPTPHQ
T2 sequence (P18507 whole entry): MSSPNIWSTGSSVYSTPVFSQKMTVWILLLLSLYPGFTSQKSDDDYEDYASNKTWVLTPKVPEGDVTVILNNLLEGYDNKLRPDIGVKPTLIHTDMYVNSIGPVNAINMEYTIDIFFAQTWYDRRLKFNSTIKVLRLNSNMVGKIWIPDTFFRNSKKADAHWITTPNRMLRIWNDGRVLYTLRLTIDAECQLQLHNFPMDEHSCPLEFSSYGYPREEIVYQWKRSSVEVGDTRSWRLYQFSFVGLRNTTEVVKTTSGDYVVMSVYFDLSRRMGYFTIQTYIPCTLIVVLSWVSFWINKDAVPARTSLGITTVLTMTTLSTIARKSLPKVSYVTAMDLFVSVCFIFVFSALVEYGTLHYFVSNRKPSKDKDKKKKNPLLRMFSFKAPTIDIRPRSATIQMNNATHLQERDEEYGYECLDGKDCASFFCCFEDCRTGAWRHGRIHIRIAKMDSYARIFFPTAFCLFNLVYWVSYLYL

[24] = Plasma clearance in rat at 1 mg/kg, iv or 3 mg/kg, po; assay type: ADME, organism-based
[25] = Unbound clearance in rat at 1 mg/kg, iv or 3 mg/kg, po; assay type: ADME, organism-based; details: in vivo
[26] = Half life in rat at 1 mg/kg, iv or 3 mg/kg, po; assay type: ADME, organism-based; details: in vivo
[27] = AUC (0 to infinity) in rat at 1 mg/kg, iv or 3 mg/kg, po; assay type: ADME, organism-based; details: in vivo
[28] = Volume of distribution in rat at 1 mg/kg, iv or 3 mg/kg, po; assay type: ADME, organism-based; details: in vivo
[29] = Oral bioavailability in rat at 3 mg/kg; assay type: ADME, organism-based; details: in vivo

Sodium channel protein type 10 subunit alpha, sequence (Q9Y5Y9 whole entry): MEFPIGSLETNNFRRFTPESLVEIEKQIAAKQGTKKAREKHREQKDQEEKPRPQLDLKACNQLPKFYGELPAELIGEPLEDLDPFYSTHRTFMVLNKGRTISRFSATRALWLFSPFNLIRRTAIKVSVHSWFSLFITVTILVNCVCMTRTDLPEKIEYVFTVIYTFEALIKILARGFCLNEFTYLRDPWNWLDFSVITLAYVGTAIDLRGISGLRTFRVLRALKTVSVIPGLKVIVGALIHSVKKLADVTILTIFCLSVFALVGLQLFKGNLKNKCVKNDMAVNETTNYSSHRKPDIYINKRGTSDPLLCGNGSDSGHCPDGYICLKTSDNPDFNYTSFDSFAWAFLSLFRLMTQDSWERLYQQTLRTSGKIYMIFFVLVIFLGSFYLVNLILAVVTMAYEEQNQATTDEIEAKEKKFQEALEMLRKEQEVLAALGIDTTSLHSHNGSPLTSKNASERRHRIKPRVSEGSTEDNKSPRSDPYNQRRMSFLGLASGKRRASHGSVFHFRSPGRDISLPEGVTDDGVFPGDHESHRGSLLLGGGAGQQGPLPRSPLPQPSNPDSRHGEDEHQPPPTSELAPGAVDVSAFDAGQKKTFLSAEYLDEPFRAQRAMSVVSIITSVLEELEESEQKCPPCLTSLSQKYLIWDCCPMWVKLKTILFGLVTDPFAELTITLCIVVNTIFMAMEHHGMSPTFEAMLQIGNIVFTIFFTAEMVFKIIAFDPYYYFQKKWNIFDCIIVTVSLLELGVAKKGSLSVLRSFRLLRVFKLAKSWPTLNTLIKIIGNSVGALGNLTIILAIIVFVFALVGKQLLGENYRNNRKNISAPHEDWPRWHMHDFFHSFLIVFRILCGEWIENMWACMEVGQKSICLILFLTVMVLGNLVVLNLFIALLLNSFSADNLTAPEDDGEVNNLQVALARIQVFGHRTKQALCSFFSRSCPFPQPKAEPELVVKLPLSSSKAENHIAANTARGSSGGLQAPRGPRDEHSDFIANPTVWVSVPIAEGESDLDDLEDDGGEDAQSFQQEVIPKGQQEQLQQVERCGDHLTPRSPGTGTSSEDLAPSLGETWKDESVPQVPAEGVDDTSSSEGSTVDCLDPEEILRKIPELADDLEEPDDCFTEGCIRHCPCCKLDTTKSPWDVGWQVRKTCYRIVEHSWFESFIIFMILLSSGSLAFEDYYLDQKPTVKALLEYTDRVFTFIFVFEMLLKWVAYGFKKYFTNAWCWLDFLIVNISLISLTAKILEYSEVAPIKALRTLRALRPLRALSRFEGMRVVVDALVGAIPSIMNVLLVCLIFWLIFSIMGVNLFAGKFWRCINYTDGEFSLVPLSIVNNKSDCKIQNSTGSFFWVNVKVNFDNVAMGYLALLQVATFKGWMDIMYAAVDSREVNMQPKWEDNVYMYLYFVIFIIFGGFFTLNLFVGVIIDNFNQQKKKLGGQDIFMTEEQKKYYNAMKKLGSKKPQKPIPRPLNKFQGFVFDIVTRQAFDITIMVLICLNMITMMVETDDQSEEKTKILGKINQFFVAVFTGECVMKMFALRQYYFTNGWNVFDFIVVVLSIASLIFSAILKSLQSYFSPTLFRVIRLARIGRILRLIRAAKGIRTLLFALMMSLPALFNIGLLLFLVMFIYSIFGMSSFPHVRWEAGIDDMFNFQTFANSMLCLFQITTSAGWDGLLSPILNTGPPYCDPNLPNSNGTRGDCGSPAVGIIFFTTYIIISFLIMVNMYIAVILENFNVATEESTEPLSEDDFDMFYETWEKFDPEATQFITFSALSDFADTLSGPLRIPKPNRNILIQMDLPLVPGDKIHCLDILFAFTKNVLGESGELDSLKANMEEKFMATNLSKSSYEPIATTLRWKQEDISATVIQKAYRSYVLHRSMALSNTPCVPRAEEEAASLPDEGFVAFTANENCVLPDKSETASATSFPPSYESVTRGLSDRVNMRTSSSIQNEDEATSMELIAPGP
Sodium channel protein type 5 subunit alpha, sequence (Q14524 whole entry): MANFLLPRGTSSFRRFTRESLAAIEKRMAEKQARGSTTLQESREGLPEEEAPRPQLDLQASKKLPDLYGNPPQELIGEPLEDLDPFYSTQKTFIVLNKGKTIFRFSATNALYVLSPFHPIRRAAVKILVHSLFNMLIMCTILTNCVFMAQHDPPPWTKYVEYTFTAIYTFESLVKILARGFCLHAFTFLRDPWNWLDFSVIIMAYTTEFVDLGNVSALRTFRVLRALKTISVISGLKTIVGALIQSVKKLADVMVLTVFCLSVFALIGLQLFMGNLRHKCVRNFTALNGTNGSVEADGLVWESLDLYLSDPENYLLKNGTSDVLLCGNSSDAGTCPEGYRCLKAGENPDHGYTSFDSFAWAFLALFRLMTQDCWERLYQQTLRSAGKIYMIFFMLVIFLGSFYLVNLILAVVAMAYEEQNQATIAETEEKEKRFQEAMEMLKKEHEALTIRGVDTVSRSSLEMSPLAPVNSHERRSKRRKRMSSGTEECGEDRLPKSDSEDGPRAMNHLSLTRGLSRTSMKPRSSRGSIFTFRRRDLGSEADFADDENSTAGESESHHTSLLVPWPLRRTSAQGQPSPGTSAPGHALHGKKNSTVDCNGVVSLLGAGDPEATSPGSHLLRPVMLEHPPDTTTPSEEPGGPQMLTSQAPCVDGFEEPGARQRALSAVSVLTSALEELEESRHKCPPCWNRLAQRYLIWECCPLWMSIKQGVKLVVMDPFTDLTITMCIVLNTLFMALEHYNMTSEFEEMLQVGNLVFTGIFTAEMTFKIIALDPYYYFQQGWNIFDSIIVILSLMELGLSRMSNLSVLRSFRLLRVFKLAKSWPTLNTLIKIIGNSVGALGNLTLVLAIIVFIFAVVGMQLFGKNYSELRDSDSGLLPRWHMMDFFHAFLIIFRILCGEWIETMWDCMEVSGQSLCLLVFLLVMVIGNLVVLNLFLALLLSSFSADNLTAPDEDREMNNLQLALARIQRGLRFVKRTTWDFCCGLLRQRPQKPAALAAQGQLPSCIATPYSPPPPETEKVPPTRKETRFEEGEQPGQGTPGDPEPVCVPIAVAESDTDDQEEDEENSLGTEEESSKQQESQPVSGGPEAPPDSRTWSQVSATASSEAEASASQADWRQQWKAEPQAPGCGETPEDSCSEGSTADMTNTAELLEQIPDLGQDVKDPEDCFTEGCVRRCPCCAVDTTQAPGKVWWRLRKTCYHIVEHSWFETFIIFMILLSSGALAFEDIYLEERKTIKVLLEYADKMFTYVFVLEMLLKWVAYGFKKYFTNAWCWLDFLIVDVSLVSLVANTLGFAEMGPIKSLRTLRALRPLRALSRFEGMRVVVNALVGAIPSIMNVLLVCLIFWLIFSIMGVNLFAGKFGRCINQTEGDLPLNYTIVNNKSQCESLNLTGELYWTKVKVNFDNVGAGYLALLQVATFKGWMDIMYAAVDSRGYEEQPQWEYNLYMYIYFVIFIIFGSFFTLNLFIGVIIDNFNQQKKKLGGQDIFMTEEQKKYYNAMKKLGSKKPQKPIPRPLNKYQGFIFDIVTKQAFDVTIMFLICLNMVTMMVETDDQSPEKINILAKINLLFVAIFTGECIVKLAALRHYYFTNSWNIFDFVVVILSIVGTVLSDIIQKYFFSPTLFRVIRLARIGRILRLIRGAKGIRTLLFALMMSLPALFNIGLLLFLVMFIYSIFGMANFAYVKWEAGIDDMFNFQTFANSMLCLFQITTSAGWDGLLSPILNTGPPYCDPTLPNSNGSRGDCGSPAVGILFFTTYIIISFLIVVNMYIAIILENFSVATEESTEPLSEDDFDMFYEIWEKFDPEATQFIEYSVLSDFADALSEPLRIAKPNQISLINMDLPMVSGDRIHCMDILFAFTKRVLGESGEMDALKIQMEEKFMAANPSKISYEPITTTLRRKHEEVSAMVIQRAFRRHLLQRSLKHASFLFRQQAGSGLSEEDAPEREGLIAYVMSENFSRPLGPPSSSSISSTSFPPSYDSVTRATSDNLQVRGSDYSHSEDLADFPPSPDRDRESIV
Voltage-gated inwardly rectifying potassium channel KCNH2, sequence (Q12809 whole entry): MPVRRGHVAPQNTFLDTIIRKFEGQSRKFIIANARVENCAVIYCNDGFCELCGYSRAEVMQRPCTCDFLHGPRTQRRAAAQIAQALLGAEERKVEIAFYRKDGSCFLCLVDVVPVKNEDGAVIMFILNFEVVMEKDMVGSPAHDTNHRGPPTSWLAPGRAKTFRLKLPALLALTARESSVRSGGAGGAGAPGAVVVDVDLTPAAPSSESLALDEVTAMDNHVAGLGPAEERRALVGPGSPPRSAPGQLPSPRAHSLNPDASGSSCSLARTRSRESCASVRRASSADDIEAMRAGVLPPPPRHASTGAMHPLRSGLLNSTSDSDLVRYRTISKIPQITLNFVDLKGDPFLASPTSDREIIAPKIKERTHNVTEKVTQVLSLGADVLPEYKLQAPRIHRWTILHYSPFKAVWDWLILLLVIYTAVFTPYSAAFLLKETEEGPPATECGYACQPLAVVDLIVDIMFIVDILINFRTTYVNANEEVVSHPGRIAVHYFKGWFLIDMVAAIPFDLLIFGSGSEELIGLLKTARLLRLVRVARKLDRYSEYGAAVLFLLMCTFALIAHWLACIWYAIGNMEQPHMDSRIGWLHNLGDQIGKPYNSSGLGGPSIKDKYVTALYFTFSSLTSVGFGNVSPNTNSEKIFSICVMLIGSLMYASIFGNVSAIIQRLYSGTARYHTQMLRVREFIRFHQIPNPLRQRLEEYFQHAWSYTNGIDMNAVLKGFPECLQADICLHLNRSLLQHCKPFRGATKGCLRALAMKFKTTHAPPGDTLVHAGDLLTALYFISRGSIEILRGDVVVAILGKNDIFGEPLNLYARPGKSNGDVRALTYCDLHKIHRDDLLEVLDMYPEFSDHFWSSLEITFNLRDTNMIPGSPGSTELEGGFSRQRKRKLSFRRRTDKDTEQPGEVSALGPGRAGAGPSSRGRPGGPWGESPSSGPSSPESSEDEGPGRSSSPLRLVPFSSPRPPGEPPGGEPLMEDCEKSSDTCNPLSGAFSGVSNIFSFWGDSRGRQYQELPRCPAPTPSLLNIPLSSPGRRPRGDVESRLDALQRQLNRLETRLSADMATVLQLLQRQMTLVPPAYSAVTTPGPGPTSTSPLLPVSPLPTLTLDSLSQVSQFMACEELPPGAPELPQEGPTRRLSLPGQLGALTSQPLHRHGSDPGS

## CC(C)(C)c1ccc2[nH]c([C@H]3CCCN3)nc2c1
[1]
  IC50: 43 nM

## CC(C)(C)c1ccc2[nH]c(C(C)(C)N)nc2c1
[1]
  IC50: 607 nM
Nav1.5 (SCN5A)
  inhibition at 10 µM: 12%

## C[C@@H](O)[C@H](N)c1nc2cc(C(C)(C)C#N)ccc2[nH]1
[1]
  IC50: 728 nM

## CC(C)(C)c1ccc2ncc([C@@H](N)CO)nc2c1
[1]
  IC50: > 1000 nM

## C[C@@H](O)[C@H](N)c1nc2cc(C(F)(F)F)ccc2[nH]1
[1]
  IC50: 534 nM

## CC(C)(C)c1ccc2[nH]c([C@H]3C[C@@H](O)CN3)nc2c1
[1]
  IC50: 31 nM

## CO[C@H](C)[C@H](N)c1nc2cc(-c3ccc(C#N)cc3F)ccc2[nH]1
[1]
  IC50: 18 nM

## CC(C)(C)c1ccc2nc([C@H](N)CO)cnc2c1
[1]
  IC50: > 1000 nM

## CO[C@H](C)[C@H](N)c1nc2cc(OC(F)(F)F)ccc2[nH]1
[1]
  IC50: 2570 nM

## CCC(C)c1ccc2[nH]c([C@@H](N)CO)nc2c1 (stereo partly drawn)
[1]
  IC50: 708 nM

## CCC[C@H](N)c1nc2cc(C(C)(C)C)ccc2[nH]1
[1]
  IC50: 2 nM

## CCCC(O)c1nc2cc(C(C)(C)C)ccc2[nH]1 (stereo not drawn)
[1]
  IC50: > 1000 nM

## C[C@@H](O)[C@H](N)c1nc2cc(S(F)(F)(F)(F)F)ccc2[nH]1
[1]
  IC50: 95 nM

## CO[C@H](C)[C@H](N)c1nc2cc(-c3ccc(C#N)nc3)ccc2[nH]1
[1]
  IC50: 998 nM

## C[C@@H](C(N)=O)[C@H](N)c1nc2ccc(C(C)(C)C)cc2[nH]1 [PF-06305591]
[1]
  IC50: 15 nM
[2]
  IC50: > 30000 nM
[3]
  IC50: > 30000 nM
[4]
  IC50: > 30000 nM
[5]
  IC50: > 30000 nM
[6]
  Papp A→B: 3.5 ×10⁻⁶ cm/s
[7]
  Stability: < 11 µL/min
[8]
  Stability: < 2 µL/min
[9]
  logD: 2.1
[10]
  pKa: 5.9
[11]
  solubility: 2000 µg/mL (≈ 7.29 mM)
[12]
  IC50: > 30000 nM
[13]
  IC50: > 30000 nM
[14]
  IC50: > 30000 nM
[15]
  IC50: > 30000 nM
[16]
  IC50: > 30000 nM
[17]
  IC50: > 30000 nM
[18]
  IC50: > 30000 nM
[19]
  IC50: > 30000 nM
[20]
  IC50: > 30000 nM
[21]
  IC50: > 30000 nM
[22]
  IC50: > 30000 nM
[23]
  IC50: > 30000 nM
[24]
  clearance: 40 mL/min/kg
[25]
  CL free: 214 mL/min/kg
[26]
  half-life: 1.5 h
[27]
  AUC(0-inf): 962 ng·h/mL
[28]
  Vd: 2.3 L/kg
[29]
  bioavailability: 61%

## CN[C@@H](CC(N)=O)c1nc2cc(C(C)(C)C)ccc2[nH]1
[1]
  IC50: 742 nM

## C[C@H](O)[C@@H](N)c1nc2cc(-c3ccc(C#N)cc3)ccc2[nH]1
[1]
  IC50: 579 nM

## CC(C)(C)c1ccc2nc([C@@H](N)CO)cnc2c1
[1]
  IC50: > 1000 nM

## CC(C)(C)c1ccc2ncc([C@H](N)CO)nc2c1
[1]
  IC50: > 1000 nM

## C[C@@H](C(N)=O)[C@H](N)c1cn2cc(C(C)(C)C)ccc2n1
[4]
  IC50: > 10000 nM
[5]
  IC50: > 72000 nM
[6]
  Papp A→B: 2.2 ×10⁻⁶ cm/s
[7]
  Stability: < 11 µL/min
[8]
  Stability: 2.5 µL/min
[10]
  pKa: 7

## CC1(c2ccc3[nH]c([C@@H](N)CO)nc3c2)CC1
[1]
  IC50: 593 nM

## CC(C)c1ccc2[nH]c([C@@H](N)[C@@H](C)O)nc2c1
[1]
  IC50: 43 nM

## CO[C@H](C)[C@H](N)c1nc2cc(C(C)(C)C)ccc2[nH]1
[1]
  IC50: 24 nM

## CC(C)(C)c1ccc2[nH]c([C@@](C)(N)CO)nc2c1
[1]
  IC50: 65 nM
